Among the data in US7071349B2, “Purification method of N-(1(S)-ethoxycarbonyl-3-phenylpropyl)-L-alanine” (Kanaka Corporation, priority 2001, dated 2006) are Solubility values, retold here.

A short description of the series: Solubility of the pure product in mixed solvents of ethanol and water. The series is classed as physicochemical. As for the experimental part:
One-hundred milliliters each of mixed solvents of ethanol and water in predetermined volume ratios were respectively adjusted to predetermined temperatures and each […] of N-(1(S)-ethoxycarbonyl-3-phenylpropyl)-L-alanine was no longer dissolved. After 30 minutes of standing, the supernatant was taken and the solubility (weight %) was determined according to the weight after concentration to dryness/the weight of the solution.

In the case of `CCOC(=O)[C@H](CCc1ccccc1)N[C@@H](C)C(=O)O` [N-(1(S)-ethoxycarbonyl-3-phenylpropyl)-L-alanine], the Solubility by setting is: (ethanol/water volume ratio 0.43, 10° C.) 1 weight %; (ethanol/water volume ratio 0.43, 65° C.) 9 weight %; (ethanol/water volume ratio 1.00, 10° C.) 2 weight %; (ethanol/water volume ratio 1.00, 20° C.) 3 weight %; (ethanol/water volume ratio 1.00, 65° C.) 21 weight %; (ethanol/water volume ratio 2.33, 10° C.) 3 weight %. Moreover, the Solubility is, setting by setting: (ethanol/water volume ratio 2.33, 20° C.) 4 weight %; (ethanol/water volume ratio 2.33, 65° C.) 42 weight %; (ethanol/water volume ratio 4.00, 10° C.) 4 weight %; (ethanol/water volume ratio 4.00, 20° C.) 5 weight %; (ethanol/water volume ratio 4.00, 65° C.) 45 weight %; (ethanol/water volume ratio 5.67, 10° C.) 3 weight %. In addition, the Solubility is, setting by setting: (ethanol/water volume ratio 5.67, 20° C.) 5 weight %; (ethanol/water volume ratio 5.67, 65° C.) 42 weight %; (ethanol/water volume ratio 15.7, 10° C.) 3 weight %; (ethanol/water volume ratio 15.7, 20° C.) 4 weight %; (ethanol/water volume ratio 15.7, 65° C.) 26 weight %; (ethanol/water volume ratio 249, 10° C.) 2 weight %. For the same molecule, the Solubility worked out at 3 weight % (ethanol/water volume ratio 249, 20° C.) and 17 weight % (ethanol/water volume ratio 249, 65° C.).
